Test results taken from DBAASP.
Converted amounts (≈) assume the structure as drawn.

Experiments:
Experiment in all cases: ≥ marks a high value that may be exact or a test limit, other limits are often not marked, values filed in µg/mL are converted to µM
Streptococcus mutans = system: Streptococcus mutans
[1] = system: Escherichia coli ATCC 25922
[2] = system: Klebsiella pneumoniae ATCC 13883
[3] = system: Pseudomonas aeruginosa PAO1
[4] = system: Staphylococcus aureus USA 300
Bacillus subtilis = system: Bacillus subtilis
[5] = system: Candida albicans F7-39/IDE99
Escherichia coli B = system: Escherichia coli B
Pseudomonas aeruginosa = system: Pseudomonas aeruginosa
Staphylococcus aureus = system: Staphylococcus aureus
[6] = system: Bacillus subtilis ATCC 23857
Escherichia coli ML-35 = system: Escherichia coli ML-35
[7] = system: Staphylococcus aureus ATCC 29213
[8] = system: Staphylococcus epidermidis ATCC 12228
[9] = system: Enterococcus faecalis ATCC 29212
[10] = system: Salmonella enterica subsp. enterica serovar Pullorum C79-13
[11] = system: Salmonella enterica subsp. enterica serovar Typhimurium C77-31
[12] = system: Candida albicans ATCC 2002
Candida albicans = system: Candida albicans
Escherichia coli = system: Escherichia coli
[13] = system: Pseudomonas aeruginosa CMCCB 10104
[14] = system: Staphylococcus aureus ATCC 25923

CC(C)C[C@H](NC(=O)[C@H](C)NC(=O)[C@H](Cc1cnc[nH]1)NC(=O)[C@H](CC(C)C)NC(=O)[C@H](CC(C)C)NC(=O)[C@H](Cc1cnc[nH]1)NC(=O)[C@@H](NC(=O)[C@H](C)N)[C@@H](C)O)C(=O)N[C@@H](CCC(N)=O)C(=O)N[C@@H](CCCN=C(N)N)C(=O)N[C@@H](Cc1ccccc1)C(N)=O [ATHLLHALQRF]
MIC (Streptococcus mutans): ≥ 191 µM

CC(C)C[C@H](NC(=O)[C@H](CC(C)C)NC(=O)CNC(=O)[C@H](CC(C)C)NC(=O)[C@H](CC(C)C)NC(=O)[C@H](CO)NC(=O)[C@H](CC(C)C)NC(=O)[C@H](CC(C)C)NC(=O)[C@H](CO)NC(=O)[C@H](CC(C)C)NC(=O)[C@H](CC(C)C)NC(=O)[C@H](CCCCN)NC(=O)CN)C(N)=O [GKLLSLLSLLGLL]
MIC [1]: > 25 µM
MIC [2]: 25 µM (≈ 33.5 µg/mL)
MIC [3]: > 25 µM
MIC [4]: 3.1 µM (≈ 4.15 µg/mL)

CC(C)C[C@H](NC(=O)[C@H](CC(C)C)NC(=O)[C@H](CCCCN)NC(=O)CNC(=O)[C@H](CC(C)C)NC(=O)[C@H](CC(C)C)NC(=O)[C@H](CO)NC(=O)[C@H](CC(C)C)NC(=O)[C@H](CC(C)C)NC(=O)[C@H](CO)NC(=O)[C@H](C)NC(=O)[C@H](CC(C)C)NC(=O)CN)C(N)=O [GLASLLSLLGKLL]
MIC [1]: > 25 µM
MIC [2]: 25 µM (≈ 32.4 µg/mL)
MIC [3]: > 25 µM
MIC [4]: 0.78 µM (≈ 1.01 µg/mL)

CC(C)C[C@H](NC(=O)[C@H](CC(C)C)NC(=O)[C@H](CCCCN)NC(=O)CNC(=O)[C@H](C)NC(=O)[C@H](CC(C)C)NC(=O)[C@H](CO)NC(=O)[C@H](CC(C)C)NC(=O)[C@H](CC(C)C)NC(=O)[C@H](CO)NC(=O)[C@H](CC(C)C)NC(=O)[C@H](CC(C)C)NC(=O)CN)C(N)=O [GLLSLLSLAGKLL]
MIC [1]: 3.1 µM (≈ 4.02 µg/mL)
MIC [2]: 3.1 µM (≈ 4.02 µg/mL)
MIC [3]: 12.5 µM (≈ 16.2 µg/mL)
MIC [4]: 0.78 µM (≈ 1.01 µg/mL)

CC[C@H](C)[C@H](NC(=O)[C@H](C)NC(=O)[C@H](C)NC(=O)[C@H](CC(C)C)NC(=O)[C@@H](NC(=O)[C@H](CCCCN)NC(=O)[C@H](CCCNC(=N)N)NC(=O)[C@@H]1CCCN1C(=O)[C@H](CC(C)C)NC(=O)CN)[C@@H](C)CC)C(=O)N[C@@H](C)C(=O)N[C@@H](CCCCN)C(=O)N[C@@H](CCCCN)C(=O)N[C@@H](CCCCN)C(=O)NCC(=O)N[C@@H](CCCCN)C(=O)N[C@@H](C)C(=O)N[C@@H](CCCCN)C(=O)NCC(=O)N1CCC[C@H]1C(=O)N[C@@H](CC(C)C)C(=O)N[C@@H](CCCCN)C(=O)N[C@@H](CC(C)C)C(=O)N[C@H](C(=O)N[C@@H](C)C(=O)N[C@@H](CCCCN)C(=O)N[C@@H](C)C(=O)O)C(C)C [GLPRKILAAIAKKKGKAKGPLKLVAKA]
MIC (Bacillus subtilis): 12 µM (≈ 33.2 µg/mL)
MIC [5]: ≥ 100 µM
MIC (Escherichia coli B): ≥ 100 µM
MIC (Pseudomonas aeruginosa): > 100 µM
MIC (Staphylococcus aureus): > 100 µM

CC[C@H](C)[C@@H]1NC(=O)[C@H](C)NC(=O)[C@@H](NC(=O)[C@H](CC(C)C)NC(=O)[C@@H](NC(=O)[C@H](CCCCN)NC(=O)[C@H](CCCN=C(N)N)NC(=O)[C@@H]2CCCN2C(=O)[C@H](CC(C)C)NC(=O)CN)[C@@H](C)CC)CSSC[C@@H](C(=O)N[C@@H](CCCCN)C(=O)NCC(=O)N2CCC[C@H]2C(=O)N[C@@H](CC(C)C)C(=O)N[C@@H](CCCCN)C(=O)N[C@@H](CC(C)C)C(=O)N[C@H](C(=O)N[C@H]2CSSC[C@@H](C(=O)O)NC(=O)[C@H](CCCCN)NC2=O)C(C)C)NC(=O)[C@H](CCCCN)NC(=O)CNC(=O)[C@H](CCCCN)NC(=O)[C@H](CCCCN)NC(=O)[C@H](CCCCN)NC(=O)[C@H](C)NC1=O [GLPRKILCAIAKKKGKCKGPLKLVCKC]
MIC (Bacillus subtilis): 4 µM (≈ 11.6 µg/mL)
MIC [5]: ≥ 100 µM
MIC (Escherichia coli B): ≥ 100 µM
MIC (Pseudomonas aeruginosa): > 100 µM
MIC (Staphylococcus aureus): > 100 µM

CC[C@H](C)[C@H](N)C(=O)N[C@@H](CC(C)C)C(=O)NCC(=O)N[C@H](C(=O)N[C@H](C(=O)N[C@@H](CC(C)C)C(=O)NCC(=O)N1CCC[C@H]1C(=O)N[C@@H](CC(C)C)C(=O)N[C@@H](CCCCN)C(=O)NCC(=O)N[C@@H](CC(C)C)C(N)=O)[C@@H](C)CC)[C@@H](C)O [ILGTILGPLKGL]
MIC [6]: ≥ 256 µM
MIC [1]: > 256 µM
MIC (Escherichia coli ML-35): ≥ 256 µM
MIC [7]: > 256 µM
MIC [8]: > 256 µM

CC[C@H](C)[C@H](N)C(=O)N[C@@H](CC(C)C)C(=O)NCC(=O)N[C@H](C(=O)N[C@H](C(=O)N[C@@H](CC(C)C)C(=O)N1CCC[C@H]1C(=O)N[C@@H](CC(C)C)C(=O)N[C@@H](CC(C)C)C(=O)N[C@@H](CCCCN)C(=O)NCC(=O)N[C@@H](CC(C)C)C(N)=O)[C@@H](C)CC)[C@@H](C)O [ILGTILPLLKGL]
MIC [6]: ≥ 256 µM
MIC [1]: > 256 µM
MIC (Escherichia coli ML-35): ≥ 256 µM
MIC [7]: > 256 µM
MIC [8]: > 256 µM

CC[C@H](C)[C@H](NC(=O)[C@H](CC(N)=O)NC(=O)[C@H](CCCCN)NC(=O)[C@H](CC(C)C)NC(=O)[C@H](CCC(N)=O)NC(=O)[C@H](CCC(N)=O)NC(=O)[C@@H](NC(=O)[C@H](CC(C)C)NC(=O)[C@@H](N)CCCCN)C(C)C)C(=O)N[C@@H](Cc1ccccc1)C(=O)N[C@@H](CCCN=C(N)N)C(=O)O [KLVQQLKNIFR]
MIC (Streptococcus mutans): ≥ 90.1 µM

CC(C)C[C@H](NC(=O)[C@H](CC(C)C)NC(=O)[C@H](CCCCN)NC(=O)[C@H](CC(C)C)NC(=O)[C@H](CC(C)C)NC(=O)[C@H](CCCCN)NC(=O)[C@H](CCCCN)NC(=O)[C@H](CC(C)C)NC(=O)[C@H](CC(C)C)NC(=O)[C@H](CCCCN)NC(=O)[C@@H](N)CC(C)C)C(=O)N[C@@H](CCCCN)C(=O)N[C@@H](CCCCN)C(=O)N[C@@H](Cc1ccccc1)C(N)=O [LKLLKKLLKLLKKF]
MIC (Streptococcus mutans): 4.63 µM (≈ 8 µg/mL)

CC(C)C[C@H](NC(=O)[C@@H](NC(=O)[C@@H](NC(=O)[C@@H](N)CC(C)C)C(C)C)[C@@H](C)O)C(=O)N[C@H](C(=O)N[C@@H](Cc1ccccc1)C(=O)N[C@H](C(=O)O)C(C)C)C(C)C [LVTLVFV]
MIC [9]: > 128 µM
MIC [1]: > 128 µM
MIC [10]: ≥ 128 µM
MIC [11]: ≥ 128 µM
MIC [7]: > 128 µM
MIC [8]: > 128 µM

NC(N)=NCCC[C@H](NC(=O)[C@H](Cc1c[nH]c2ccccc12)NC(=O)[C@H](Cc1c[nH]c2ccccc12)NC(=O)[C@H](Cc1ccccc1)NC(=O)[C@H](CCCN=C(N)N)NC(=O)[C@H](CCCN=C(N)N)NC(=O)[C@@H](N)CCCN=C(N)N)C(=O)O [RRRFWWR]
MIC (Streptococcus mutans): ≥ 53.8 µM

NC(N)=NCCC[C@H](NC(=O)[C@H](CCCN=C(N)N)NC(=O)[C@H](Cc1c[nH]c2ccccc12)NC(=O)[C@H](Cc1c[nH]c2ccccc12)NC(=O)[C@H](CCCN=C(N)N)NC(=O)[C@@H](N)CCCN=C(N)N)C(=O)N[C@@H](Cc1c[nH]c2ccccc12)C(=O)O [RRWWRRW]
MIC (Streptococcus mutans): 13.3 µM (≈ 16 µg/mL)

CC[C@H](C)[C@H](NC(=O)[C@@H](N)C(C)C)C(=O)N1CCC[C@H]1C(=O)N[C@@H](Cc1ccccc1)C(=O)N[C@H](C(=O)N[C@@H](C)C(=O)N[C@@H](CO)C(=O)N[C@H](C(=O)N[C@@H](C)C(=O)N[C@@H](C)C(=O)N[C@@H](CCC(=O)O)C(=O)N[C@@H](CCSC)C(=O)N[C@@H](CCSC)C(=O)N[C@@H](CCC(N)=O)C(=O)N[C@@H](Cc1cnc[nH]1)C(=O)N[C@H](C(=O)N[C@@H](Cc1ccc(O)cc1)C(=O)N[C@H]1CSSC[C@@H](C(=O)O)NC(=O)[C@H](CCCCN)NC(=O)[C@H](CCCCN)NC(=O)[C@H](CO)NC(=O)[C@H](C)NC(=O)[C@H](C)NC1=O)C(C)C)C(C)C)C(C)C [VIPFVASVAAEMMQHVYCAASKKC]
MIC (Bacillus subtilis): 0.677 µM (≈ 1.75 µg/mL)
MIC [12]: 4.02 µM (≈ 10.4 µg/mL)
MIC (Candida albicans): 0.677 µM (≈ 1.75 µg/mL)
MIC [1]: 4.02 µM (≈ 10.4 µg/mL)
MIC (Escherichia coli): 1.35 µM (≈ 3.5 µg/mL)
MIC [13]: 2.01 µM (≈ 5.2 µg/mL)
MIC [14]: 8.05 µM (≈ 20.8 µg/mL)
MIC (Staphylococcus aureus): 1.35 µM (≈ 3.5 µg/mL)

CC(C)C[C@H](NC(=O)[C@H](Cc1cnc[nH]1)NC(=O)[C@H](CCC(N)=O)NC(=O)[C@H](Cc1c[nH]c2ccccc12)NC(=O)[C@@H](NC(=O)[C@H](CCC(N)=O)NC(=O)[C@H](Cc1ccccc1)NC(=O)[C@H](CC(C)C)NC(=O)[C@@H](N)Cc1ccc(O)cc1)[C@@H](C)O)C(=O)N[C@@H](Cc1ccccc1)C(=O)N[C@@H](CCCN=C(N)N)C(=O)O [YLFQTWQHLFR]
MIC (Streptococcus mutans): ≥ 81.2 µM
